Results: PubChem BioAssay (NCI)
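Briefly, cells in 96-well plates were exposed to five compound concentrations for 48 h, and endpoints were estimated by linear interpolation. TGI is the concentration that stops growth completely.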

Tests used:
Test in all cases: DTP human tumour cell line panel, 48 h
OVCAR-4 ovarian = system: OVCAR-4 ovarian
KM12 colon = system: KM12 colon
786-0 renal = system: 786-0 renal
HT29 colon = system: HT29 colon
SNB-78 CNS = system: SNB-78 CNS
RPMI-8226 leukemia = system: RPMI-8226 leukemia
SK-MEL-2 melanoma = system: SK-MEL-2 melanoma
DMS 273 small cell lung = system: DMS 273 small cell lung
UACC-62 melanoma = system: UACC-62 melanoma
OVCAR-8 ovarian = system: OVCAR-8 ovarian
ACHN renal = system: ACHN renal
TK-10 renal = system: TK-10 renal
COLO 205 colon = system: COLO 205 colon
NCI-H460 lung = system: NCI-H460 lung
OVCAR-3 ovarian = system: OVCAR-3 ovarian
LOX IMVI melanoma = system: LOX IMVI melanoma
SNB-19 CNS = system: SNB-19 CNS
MALME-3M melanoma = system: MALME-3M melanoma
RXF 393 renal = system: RXF 393 renal
SK-MEL-28 melanoma = system: SK-MEL-28 melanoma
MOLT-4 leukemia = system: MOLT-4 leukemia
XF 498 CNS = system: XF 498 CNS
CAKI-1 renal = system: CAKI-1 renal
SN12C renal = system: SN12C renal
HOP-92 NSCLC = system: HOP-92 NSCLC
K-562 leukemia = system: K-562 leukemia
U251 CNS = system: U251 CNS
NCI-H522 lung = system: NCI-H522 lung
A549 NSCLC = system: A549 NSCLC
DMS 114 small cell lung = system: DMS 114 small cell lung
HCT-15 colon = system: HCT-15 colon
A498 renal = system: A498 renal
HCT-116 colon = system: HCT-116 colon
SF-268 CNS = system: SF-268 CNS
KM20L2 colon = system: KM20L2 colon
SF-295 CNS = system: SF-295 CNS
EKVX NSCLC = system: EKVX NSCLC
CCRF-CEM leukemia = system: CCRF-CEM leukemia
SW-620 colon = system: SW-620 colon
HL-60(TB) leukemia = system: HL-60(TB) leukemia
IGROV1 ovarian = system: IGROV1 ovarian
HOP-62 NSCLC = system: HOP-62 NSCLC
DLD-1 colon = system: DLD-1 colon
SF-539 CNS = system: SF-539 CNS
SK-MEL-5 melanoma = system: SK-MEL-5 melanoma
HCC-2998 colon = system: HCC-2998 colon
RXF-631 renal = system: RXF-631 renal
OVCAR-5 ovarian = system: OVCAR-5 ovarian
SK-OV-3 ovarian = system: SK-OV-3 ovarian
M19-MEL melanoma = system: M19-MEL melanoma
M14 melanoma = system: M14 melanoma
SNB-75 CNS = system: SNB-75 CNS
NCI-H226 lung = system: NCI-H226 lung
SR leukemia = system: SR leukemia
HOP-18 NSCLC = system: HOP-18 NSCLC
NCI-H23 lung = system: NCI-H23 lung
UACC-257 melanoma = system: UACC-257 melanoma
UO-31 renal = system: UO-31 renal
LXFL 529 NSCLC = system: LXFL 529 NSCLC

S=C(Nc1ccccc1)Nc1ccccc1SC(/C=C/NNC1=NC(c2ccccc2)C(c2ccccc2)=NN1)c1ccccc1 (centres undefined)
TGI (OVCAR-4 ovarian): > 100 µM | TGI (KM12 colon): > 100 µM | TGI (786-0 renal): > 100 µM | TGI (HT29 colon): > 100 µM | TGI (SNB-78 CNS): > 100 µM | TGI (RPMI-8226 leukemia): > 100 µM | TGI (SK-MEL-2 melanoma): > 100 µM | TGI (DMS 273 small cell lung): > 100 µM | TGI (UACC-62 melanoma): > 100 µM | TGI (OVCAR-8 ovarian): > 100 µM | TGI (ACHN renal): > 100 µM | TGI (TK-10 renal): > 100 µM | TGI (COLO 205 colon): > 100 µM | TGI (NCI-H460 lung): > 100 µM | TGI (OVCAR-3 ovarian): > 100 µM | TGI (LOX IMVI melanoma): > 100 µM | TGI (SNB-19 CNS): > 100 µM | TGI (MALME-3M melanoma): > 100 µM | TGI (RXF 393 renal): 44.6 µM | TGI (SK-MEL-28 melanoma): > 100 µM | TGI (MOLT-4 leukemia): > 100 µM | TGI (XF 498 CNS): > 100 µM | TGI (CAKI-1 renal): > 100 µM | TGI (SN12C renal): > 100 µM | TGI (HOP-92 NSCLC): 84.2 µM | TGI (K-562 leukemia): > 100 µM | TGI (U251 CNS): > 100 µM | TGI (NCI-H522 lung): > 100 µM | TGI (A549 NSCLC): > 100 µM | TGI (DMS 114 small cell lung): > 100 µM | TGI (HCT-15 colon): > 100 µM | TGI (A498 renal): > 100 µM | TGI (HCT-116 colon): > 100 µM | TGI (SF-268 CNS): > 100 µM | TGI (KM20L2 colon): > 100 µM | TGI (SF-295 CNS): > 100 µM | TGI (EKVX NSCLC): > 100 µM | TGI (CCRF-CEM leukemia): > 100 µM | TGI (SW-620 colon): > 100 µM | TGI (HL-60(TB) leukemia): > 100 µM | TGI (IGROV1 ovarian): > 100 µM | TGI (HOP-62 NSCLC): 64.5 µM | TGI (DLD-1 colon): > 100 µM | TGI (SF-539 CNS): > 100 µM | TGI (SK-MEL-5 melanoma): > 100 µM | TGI (HCC-2998 colon): > 100 µM | TGI (RXF-631 renal): > 100 µM | TGI (OVCAR-5 ovarian): > 100 µM | TGI (SK-OV-3 ovarian): > 100 µM | TGI (M19-MEL melanoma): > 100 µM | TGI (M14 melanoma): > 100 µM

CC1=C(c2cc(C(=O)Nc3cc(C)ccc3C)nc(N)n2)Sc2ccccc2N1
TGI (OVCAR-4 ovarian): > 100 µM | TGI (KM12 colon): > 100 µM | TGI (786-0 renal): > 100 µM | TGI (HT29 colon): > 100 µM | TGI (SNB-78 CNS): > 100 µM | TGI (RPMI-8226 leukemia): > 100 µM | TGI (SK-MEL-2 melanoma): > 100 µM | TGI (DMS 273 small cell lung): > 100 µM | TGI (UACC-62 melanoma): > 100 µM | TGI (OVCAR-8 ovarian): > 100 µM | TGI (ACHN renal): > 100 µM | TGI (TK-10 renal): > 100 µM | TGI (COLO 205 colon): > 100 µM | TGI (NCI-H460 lung): > 100 µM | TGI (SNB-75 CNS): > 100 µM | TGI (OVCAR-3 ovarian): > 100 µM | TGI (LOX IMVI melanoma): > 100 µM | TGI (SNB-19 CNS): > 100 µM | TGI (MALME-3M melanoma): > 100 µM | TGI (RXF 393 renal): > 100 µM | TGI (SK-MEL-28 melanoma): > 100 µM | TGI (NCI-H226 lung): > 100 µM | TGI (MOLT-4 leukemia): > 100 µM | TGI (SR leukemia): > 100 µM | TGI (CAKI-1 renal): > 100 µM | TGI (SN12C renal): > 100 µM | TGI (HOP-92 NSCLC): > 100 µM | TGI (K-562 leukemia): > 100 µM | TGI (U251 CNS): > 100 µM | TGI (NCI-H522 lung): > 100 µM | TGI (A549 NSCLC): > 100 µM | TGI (HOP-18 NSCLC): > 100 µM | TGI (DMS 114 small cell lung): > 100 µM | TGI (HCT-15 colon): > 100 µM | TGI (NCI-H23 lung): > 100 µM | TGI (A498 renal): > 100 µM | TGI (UACC-257 melanoma): > 100 µM | TGI (HCT-116 colon): > 100 µM | TGI (SF-268 CNS): > 100 µM | TGI (KM20L2 colon): > 100 µM | TGI (SF-295 CNS): > 100 µM | TGI (EKVX NSCLC): > 100 µM | TGI (CCRF-CEM leukemia): > 100 µM | TGI (SW-620 colon): > 100 µM | TGI (HL-60(TB) leukemia): > 100 µM | TGI (IGROV1 ovarian): > 100 µM | TGI (HOP-62 NSCLC): > 100 µM | TGI (DLD-1 colon): > 100 µM | TGI (UO-31 renal): > 100 µM | TGI (SF-539 CNS): > 100 µM | TGI (SK-MEL-5 melanoma): > 100 µM | TGI (LXFL 529 NSCLC): > 100 µM | TGI (HCC-2998 colon): > 100 µM | TGI (RXF-631 renal): > 100 µM | TGI (OVCAR-5 ovarian): > 100 µM | TGI (SK-OV-3 ovarian): > 100 µM | TGI (M19-MEL melanoma): > 100 µM | TGI (M14 melanoma): > 100 µM
